Measured values taken from patent US8101616B2, “Pyridine and pyrimidine derivatives as inhibitors of histone deacetylase” (Janssen Pharmaceutica N.V., priority 2006, dated 2012).
In brackets after ≈: the same amount, converted by molar mass. Read-outs that look alike come from different tables or passages of the source.

Key:
[1] = target: histone deacetylase (HeLa nuclear extracts); assay: In vitro assay for inhibition of histone deacetylase with fluorescent-labelled substrate (C.1); type: biochemical; details: Fluor de Lys substrate
Description: The in vitro assay for inhibition of histone deacetylase (see example C.1) measures the inhibition of HDAC enzymatic activity obtained with the compounds of formula (I).
The HDAC Fluorescent Activity Assay/Drug Discovery Kit of Biomol (cat. No: AK-500-0001) was used. The HDAC Fluorescent Activity Assay is based on the Fluor de Lys (Fluorogenic Histone deAcetylase Lysyl) substrate and developer combination. The Fluor de Lys substrate, comprises an acetylated lysine side chain. Deacetylation of the substrate sensitizes the substrate so that, in the second step, treatment with the Fluor de Lys developer produces a fluorophore.
HeLa nuclear extracts (supplier: Biomol) were incubated at 60 μg/ml with 75 μM of substrate. The Fluor de Lys substrate was added in a buffer containing 25 mM Tris, 137 mM NaCl, 2.7 mM KCl and 1 mM MgCl2.6H2O at pH 7.4. After 30 min, 1 volume of the developer was added. The fluorophore was excited with 355 nm light and the emitted light (450 nm) was be detected on a fluorometric plate reader.
For each experiment, controls (containing HeLa nuclear extract and buffer), a blank incubation (containing buffer but no HeLa nuclear extract) and samples (containing compound dissolved in DMSO and further diluted in buffer and HeLa nuclear extract) were run in parallel. In first instance, compounds were tested at a concentration of 10^−5M. […] All sample were tested 4 times. In each test the blank value was substracted from both the control and the sample values. The control sample represented 100% of substrate deactylation. For each sample the fluorescence was expressed as a percentage of the mean value of the controls. […] Herein the effects of test compounds are expressed as pIC50 (the negative log value of the IC50-value) (see Table F-2).

[2] = tested on: A2780 ovarian carcinoma cells; assay: Antiproliferative activity on A2780 cells, MTT (C.2); type: cell-based; details: Homo sapiens, 96 h, four days of incubation, read-out: Cellular activity pIC50 C.2 (converted)
Description: Cellular activity of the compounds of formula (I) was determined on A2780 tumour cells using a […] assay for cell toxicity or survival (Mosmann Tim, Journal of Immunological Methods 65: 55-63, 1983) (see example C.2).
All compounds tested were dissolved in DMSO and further dilutions were made in culture medium. Final DMSO concentrations never exceeded 0.1% (v/v) in cell proliferation assays. Controls contained A2780 cells and DMSO without compound and blanks contained DMSO but no cells. MTT was dissolved at 5 mg/ml in PBS. A glycine buffer comprised of 0.1 M glycine and 0.1 M NaCl buffered to pH 10.5 with NaOH (1 N) was prepared (all reagents were from Merck).
The human A2780 ovarian carcinoma cells (a kind gift from Dr. T. C. Hamilton [Fox Chase Cancer Centre, Pennsylvania, USA]) were cultured in RPMI 1640 medium supplemented with 2 mM L-glutamine, 50 μg/ml gentamicin and 10% fetal calf serum. Cells were routinely kept as monolayer cultures at 37° C. in a humidified 5% CO2 atmosphere. Cells were passaged once a week using a trypsin/EDTA solution at a split ratio of 1:40. All media and supplements were obtained from Life Technologies. Cells were free of mycoplasma contamination as determined using the Gen-Probe Mycoplasma Tissue Culture kit (supplier: BioMérieux).
Cells were seeded in NUNC™ 96-well culture plates (Supplier: Life Technologies) and allowed to adhere to the plastic overnight. Densities used for plating were 1500 cells per well in a total volume of 200 μl medium. After cell adhesion to the plates, medium was changed and drugs and/or solvents were added to a final volume of 200 μl. Following four days of incubation, medium was replaced by 200 μl fresh medium and cell density and viability was assessed using an MTT-based assay. […] For each sample, the mean value for cell growth (in absorbance units) was expressed as a percentage of the mean value for cell growth of the control. […] Herein the effects of test compounds are expressed as pIC50 (the negative log value of the IC50-value) (see Table F-2).

[3] = Solubility at pH 2.3, chemiluminescent nitrogen detector (C.3.b); type: physicochemical
Description: The solubility of a compound measures the ability of a compound to stay in solution. In the first method, the ability of a compound to stay in aqueous solution upon dilution (see example C.3.a) is measured. DMSO-stock solutions are diluted with a single aqueous buffer solvent in different consecutive steps. In this method (C.3.a), mixtures are then scanned in the BD Gentest Solubility Scanner for the occurrence of precipitation. In a second method the solubility of a compound at different pH's can be measured with the use of a chemiluminescent nitrogen detector (see example C.3.b).
The solubility of a compound, at pH 2.3, can also be measured with the use of a chemiluminescent nitrogen detector (see Table F-2).

SMILES	% metabolism (human, 15 min, 5 μM)	Enzymatic activity pIC50 C.1 [1]	IC50 [2]	solubility [3]	% metabolism (15 min incubation with active microsomes, reference compounds)
COc1cc(N)c(Cl)cc1C(=O)NC1CCN(CCCOc2ccc(F)cc2)CC1OC (stereo not drawn) [Cisapride]	45%	–	–	–	–
COCC(/C=C/c1ccc(F)cc1)N1CCN(c2ccc(C(=O)Nc3ccccc3N)cn2)CC1 (stereo not drawn) [Compound 1]	–	<6	2510 nM	–	–
Nc1ccccc1NC(=O)c1cnc(N2CCN(C(/C=C/c3cccc(F)c3)CO)CC2)nc1 (stereo not drawn) [Compound 2]	–	<6	251 nM	–	–
Nc1ccccc1NC(=O)c1cnc(N2CCN(C(/C=C/c3ccccc3)CO)CC2)nc1 (stereo not drawn) [Compound 3]	–	4.8	200 nM	3700 µg/mL (≈ 8.32 mM)	–
CCCO [propanol]	–	–	–	–	25%
